From ChEMBL document CHEMBL1201862, “PubChem BioAssay data set” (2004) come the findings set out here.

Test systems include SF-268; NCI/ADR-RES; SK-MEL-5; T47D; U-251; NCI-H226; HCT-116; NCI-H23; M14; SNB-75; MOLT-4; EKVX; SK-MEL-28; SF-539; UACC-62; Malme-3M; HCT-15; BT-549; SR.
Holding throughout (assay): inhibition of tumour cell growth, NCI panel, 48 h

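Test compounds were applied to cells in 96-well plates for 48 hours at 5 doses. GI50 is the concentration that inhibits growth by half.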 Activity calls are given as the source filed them. No stated cut-off is given here; in the data, active = GI50 up to about 1.1 µM and inactive = higher. Where a SMILES comes first, the peptide text is derived from it. The star is where a group is joined. Boc = CC(C)(C)OC(=O)*; Bn = c1ccc(C*)cc1

In the case of `O=C(Nc1ccc(Cl)cc1)c1cc(S(=O)(=O)Nc2nc3cccnc3[nH]2)c(SSc2cc(Cl)c(C(=O)Nc3ccc(Cl)cc3)cc2S(=O)(=O)Nc2nc3cccnc3[nH]2)cc1Cl`, the GI50 in the assay with SF-268, in the assay with NCI/ADR-RES, in the assay with SK-MEL-5, in the assay with T47D, in the assay with U-251 and in the assay with NCI-H226 was > 100 µM (inactive) throughout. Moreover, the GI50 in the assay with HCT-116, with NCI-H23, in the assay with M14, with SNB-75, with MOLT-4 and in the assay on EKVX was > 100 µM (inactive) in each case. In addition, the GI50 is > 100 µM (inactive) in the assay on SK-MEL-28; > 100 µM (inactive) with SF-539; > 100 µM (inactive) in the assay with UACC-62; > 100 µM (inactive) in the assay with Malme-3M; greater than 100 µM with HCT-15; > 100 µM (inactive) in the assay on BT-549.

For the molecule `N#C/C(C(=O)Nc1ccc(Cl)cc1)=C(/N)N1CCCC1`, the GI50 with NCI/ADR-RES, in the assay on SK-MEL-5, with T47D, in the assay with U-251, in the assay on NCI-H226 and with HCT-116 was > 100 µM (inactive) each time. For the same molecule, the GI50 in the assay with SR, with NCI-H23, in the assay on M14, with SNB-75, with MOLT-4 and in the assay on EKVX was > 100 µM (inactive) throughout. Moreover, the GI50 with SK-MEL-28 was > 100 µM (inactive); in the assay on SF-539, > 100 µM (inactive); in the assay on UACC-62 it was > 100 µM (inactive); in the assay on HCT-15, greater than 100 µM; in the assay with BT-549 it was > 100 µM (inactive).

As to `Oc1nc2c(c(-c3cccc(Cl)c3)n1)COC/C2=C\c1cccc(Cl)c1`, the GI50 in the assay with SF-268, in the assay with NCI/ADR-RES, in the assay on SK-MEL-5, in the assay with T47D, in the assay on U-251 and with NCI-H226 was > 100 µM (inactive) each time. In addition, the GI50 with HCT-116, in the assay with SR, in the assay on NCI-H23, in the assay on M14, in the assay with SNB-75 and in the assay with MOLT-4 was > 100 µM (inactive) each time. Also, the GI50 with EKVX was > 100 µM (inactive); in the assay with SF-539, > 100 µM (inactive); in the assay with UACC-62, > 100 µM (inactive); in the assay with HCT-15, greater than 100 µM; in the assay on BT-549, > 100 µM (inactive).

Turning to `O=C(CSc1nc2ccc(I)cc2c(=O)n1Cc1ccccc1)NNC(=S)Nc1ccccc1`, the GI50 was 5.27 µM (inactive) in the assay with SF-268; 77.6 µM (inactive) with NCI/ADR-RES; 13.8 µM (inactive) with SK-MEL-5; 23.5 µM (inactive) with T47D; 6.24 µM (inactive) in the assay on U-251; 6.53 µM (inactive) in the assay with NCI-H226. Further, the GI50 with HCT-116 is 8.63 µM (inactive); with SR it was 3.1 µM (inactive); with NCI-H23 it was 15.1 µM (inactive); in the assay on M14 it was 62.2 µM (inactive); with SNB-75 it was > 100 µM (inactive); with MOLT-4, 6.08 µM (inactive). In addition, the GI50 in the assay on EKVX was 1.73 µM (inactive); in the assay with SK-MEL-28 it was > 100 µM (inactive); in the assay with UACC-62, 33.4 µM (inactive); in the assay with HCT-15, 8.95 µM; in the assay on BT-549 it was 80.5 µM (inactive).

In the case of `COC(=O)C[C@H]1[C@]2(C)C3=C(C)[C@H](c4ccoc4)CC3O[C@@H]2[C@@H]2OC(=O)[C@]3(C)CCC(=O)[C@@]1(C)[C@@H]23` (stereo partly specified), the GI50 is 48 µM (inactive) in the assay with SF-268; 48.6 µM (inactive) in the assay on NCI/ADR-RES; 56.6 µM (inactive) with SK-MEL-5; > 100 µM (inactive) in the assay with T47D; 60.8 µM (inactive) in the assay with U-251; 35.4 µM (inactive) in the assay with HCT-116. The GI50 in the assay on SR was 19.6 µM (inactive); in the assay on NCI-H23, 46.5 µM (inactive); in the assay with M14, 41.6 µM (inactive); in the assay on SNB-75 it was 42.8 µM (inactive); with MOLT-4, 20 µM (inactive); in the assay with SK-MEL-28, 32.5 µM (inactive). The GI50 in the assay with UACC-62 is 49.2 µM (inactive); with Malme-3M it was 40.4 µM (inactive); in the assay on HCT-15 it was 38.8 µM; with BT-549, 51.5 µM (inactive).

As to `C=C1c2nc3ccccc3n2C=C(c2ccc(Cl)cc2)N1c1ccc(OCCN2CCCCC2)cc1`, the GI50 with SF-268 is 1.63 µM (inactive); in the assay with NCI/ADR-RES, > 45 µM (inactive); in the assay with SK-MEL-5 it was > 45 µM (inactive); in the assay with T47D, > 45 µM (inactive); with U-251, > 45 µM (inactive); in the assay with NCI-H226, > 100 µM (inactive). Further, the GI50 with HCT-116, in the assay on SR, in the assay on NCI-H23, in the assay with M14, in the assay with MOLT-4 and in the assay with EKVX was > 45 µM (inactive) each time. Also, the GI50 with SK-MEL-28 was > 45 µM (inactive); with SF-539 it was > 100 µM (inactive); with UACC-62, > 45 µM (inactive); in the assay with Malme-3M, 8.41 µM (inactive); in the assay with HCT-15 it was greater than 45 µM; with BT-549, > 45 µM (inactive).

`CCN(CC)CCC(=O)c1ccc(Oc2ccc(Cl)cc2)cc1`: the GI50 in the assay on SF-268 is 16.7 µM (inactive); in the assay on NCI/ADR-RES, 22.3 µM (inactive); in the assay with SK-MEL-5 it was 17.5 µM (inactive); with T47D, 20.7 µM (inactive); in the assay with U-251, 16.9 µM (inactive); with HCT-116 it was 17.6 µM (inactive). The GI50 is 20.1 µM (inactive) in the assay with SR; 17.2 µM (inactive) in the assay on NCI-H23; 15.1 µM (inactive) in the assay with M14; 12 µM (inactive) in the assay with SNB-75; 20.4 µM (inactive) with MOLT-4; 19.5 µM (inactive) in the assay on EKVX. The GI50 is 17.7 µM (inactive) in the assay with SK-MEL-28; 24.8 µM (inactive) in the assay with SF-539; 18.6 µM (inactive) in the assay on UACC-62; 18 µM (inactive) with Malme-3M; 18.4 µM in the assay with HCT-15; 17 µM (inactive) in the assay with BT-549.

As for `COc1cc(C[C@@H](C)N)cc(OC)c1`, the GI50 in the assay on SF-268, in the assay with NCI/ADR-RES, in the assay with SK-MEL-5, in the assay on T47D, with U-251 and with NCI-H226 was > 100 µM (inactive) each time. Further, the GI50 with HCT-116 was > 100 µM (inactive); in the assay on SR, > 100 µM (inactive); in the assay with NCI-H23, > 100 µM (inactive); in the assay on M14, > 100 µM (inactive); in the assay with SNB-75, 21.8 µM (inactive); in the assay on MOLT-4 it was > 100 µM (inactive). Besides, the GI50 in the assay on SK-MEL-28 was > 100 µM (inactive); with SF-539, > 100 µM (inactive); in the assay with UACC-62 it was > 100 µM (inactive); in the assay on Malme-3M it was > 100 µM (inactive); with HCT-15, greater than 100 µM; in the assay on BT-549, > 100 µM (inactive).

With `COC(=O)C(CC(C)C)NC(=O)C(C)NC(=O)C(Cc1ccc(OCc2ccccc2)cc1)NC(=O)C(COCc1ccccc1)NC(=O)OC(C)(C)C` (stereo unspecified) (Boc-S(Bn)Y(Bn)AL-OMe; configuration not given here), the GI50 in the assay with SF-268, with NCI/ADR-RES, with SK-MEL-5, with T47D, in the assay with U-251 and in the assay on NCI-H226 was > 100 µM (inactive) throughout. Further, the GI50 with HCT-116 was > 100 µM (inactive); in the assay on SR, > 100 µM (inactive); in the assay on NCI-H23, > 100 µM (inactive); in the assay with M14 it was > 100 µM (inactive); in the assay with SNB-75, > 100 µM (inactive); with MOLT-4, 96.2 µM (inactive). Further, the GI50 in the assay on EKVX is > 100 µM (inactive); in the assay on SK-MEL-28, > 100 µM (inactive); in the assay with SF-539, > 100 µM (inactive); with UACC-62 it was 96.6 µM (inactive); in the assay on Malme-3M it was > 100 µM (inactive); with BT-549, > 100 µM (inactive).

Take `Cc1c[nH]c2c(O)cc3c(c12)[C@H](CCl)CN3C(=O)c1cc2cc(NC(=O)Nc3ccc4[nH]c(C(=O)N5C[C@@H](CCl)c6c5cc(O)c5[nH]cc(C)c65)cc4c3)ccc2[nH]1` [BIZELESIN]: the GI50 is 2.82 µM (inactive) in the assay on SF-268; 0.071 µM (active) in the assay with NCI/ADR-RES; 12.5 µM (inactive) with SK-MEL-5; < 0.001 µM (active) in the assay with T47D; 0.183 µM (active) with NCI-H226; 2.6 µM (inactive) in the assay on HCT-116. Moreover, the GI50 was 0.0832 µM (active) with SR; 1.9 µM (inactive) in the assay with NCI-H23; 0.631 µM (active) in the assay with M14; 1.09 µM (active) with SNB-75; 0.418 µM (active) in the assay on MOLT-4; > 100 µM (inactive) with EKVX. The GI50 with SK-MEL-28 was 14.6 µM (inactive); with SF-539 it was 1.24 µM (inactive); in the assay on UACC-62 it was 0.701 µM (active); in the assay with Malme-3M, 13.7 µM (inactive); in the assay on BT-549, 24.9 µM (inactive).

As to `C=C1C/C(=C/C)C(=O)O[C@@H]2CCN3CC=C(COC(=O)[C@]1(C)O)[C@H]23` [SENECIPHYLLINE], the GI50 in the assay on SF-268 was > 100 µM (inactive); with NCI/ADR-RES, > 100 µM (inactive); with SK-MEL-5 it was > 100 µM (inactive); in the assay with T47D it was > 100 µM (inactive); in the assay on U-251 it was > 100 µM (inactive); in the assay with NCI-H226, 35.5 µM (inactive). Moreover, the GI50 in the assay with HCT-116, in the assay with SR, in the assay on NCI-H23, in the assay with M14, in the assay with SNB-75 and in the assay on EKVX was > 100 µM (inactive) each time. Also, the GI50 in the assay on SK-MEL-28 is > 100 µM (inactive); in the assay on SF-539, > 100 µM (inactive); in the assay on UACC-62, > 100 µM (inactive); in the assay on HCT-15 it was greater than 100 µM; with BT-549, > 100 µM (inactive).
